Where two headings read alike, the source gives them in different places.
Experiments:
HCV NS5B = biological target: T1, HCV NS5B (Hepatitis C virus genotype 1b, UniProt Q9WMX2); assay: HCV NS5B RdRp enzyme assay (standard / modified); type: biochemical; conditions: HCV RdRp genotype 1b; standard or modified assay not specified; read-out: IC50
T1 construct: The protein was expressed with an 18 amino acid C-terminal truncation to enhance the solubility; made in house; host or cells: E. coli BL21(DE3)
Experimental: HCV NS5B RdRp cloning, expression, and purification. The cDNA encoding the NS5B protein of HCV, genotype 1b, was cloned into the pET21a expression vector. The protein was expressed with an 18 amino acid C-terminal truncation to enhance the solubility. The E. coli competent cell line BL21(DE3) was used for expression of the protein. Cultures were grown at 37° C. for ˜4 hours until the cultures reached an optical density of 2.0 at 600 nm. The cultures were cooled to 20° C. and induced with 1 mM IPTG. Fresh ampicillin was added to a final concentration of 50 μg/ml and the cells were grown overnight at 20° C.
Cell pellets (3 L) were lysed for purification to yield 15-24 mgs of purified NS5B. The lysis buffer consisted of 20 mM Tris-HCl, pH 7.4, 500 mM NaCl, 0.5% triton X-100, 1 mM DTT, 1 mM EDTA, 20% glycerol, 0.5 mg/ml lysozyme, 10 mM MgCl2, 15 ug/ml deoxyribonuclease I, and Complete TM protease inhibitor tablets (Roche). After addition of the lysis buffer, frozen cell pellets were resuspended using a tissue homogenizer. To reduce the viscosity of the sample, aliquots of the lysate were sonicated on ice using a microtip attached to a Branson sonicator. The sonicated lysate was centrifuged at 100,000×g for 1 hr at 4° C. and filtered through a 0.2 μm filter unit (Corning).
The protein was purified using two sequential chromatography steps: Heparin sepharose CL-6B and polyU sepharose 4B (Pharmacia). The chromatography buffers were identical to the lysis buffer but contained no lysozyme, deoxyribonuclease I, MgCl2 or protease inhibitor and the NaCl concentration of the buffer was adjusted according to the requirements for charging the protein onto the column. Each column was eluted with a NaCl gradient which varied in length from 5-50 column volumes depending on the column type. After the final chromatography step, the resulting purity of the enzyme is >90% based on SDS-PAGE analysis. The enzyme was aliquoted and stored at −80° C.
Standard HCV NS5B RdRp enzyme assay. HCV RdRp genotype 1b assays were run in a final volume of 60 μl in 96 well plates (Corning 3600). The assay buffer is composed of 20 mM Hepes, pH 7.5, 2.5 mM KCl, 2.5 mM MgCl2, 1 mM DTT, 1.6 U RNAse inhibitor (Promega N2515), 0.01 mg/ml BSA (Sigma B6917), and 2% glycerol. All compounds were serially diluted (3-fold) in DMSO and diluted further in water such that the final concentration of DMSO in the assay was 2%. HCV RdRp genotype 1b enzyme was used at a final concentration of 28 nM. A polyA template was used at 6 nM, and a biotinylated oligo-dT12 primer was used at 180 nM final concentration. Template was obtained commercially (Amersham 27-4110). Biotinylated primer was prepared by Sigma Genosys. 3H-UTP was used at 0.6 μCi (0.29 μM total UTP). Reactions were initiated by the addition of enzyme, incubated at 30 ° C. for 60 min, and stopped by adding 25 μl of 50 mM EDTA containing SPA beads (4 μg/μl, Amersham RPNQ 0007). Plates were read on a Packard Top Count NXT after >1 hr incubation at room temperature.
Modified HCV NS5B RdRp enzyme assay. A modified enzyme assay was performed essentially as described for the standard enzyme assay except for the following: The biotinylated oligo dT12 primer was precaptured on streptavidin-coated SPA beads by mixing primer and beads in assay buffer and incubating at room temperature for one hour. Unbound primer was removed after centrifugation. The primer-bound beads were resuspended in 20 mM Hepes buffer, pH 7.5 and used in the assay at final concentrations of 20 nM primer and 0.67 μg/μl beads. Order of addition in the assay: enzyme (1.75 nM) was added to diluted compound followed by the addition of a mixture of template (0.36 nM), 3H-UTP (0.6 μCi, 0.29 μM), and primer-bound beads, to initiate the reaction; concentrations given are final. Reactions were allowed to proceed for 4 hours at 30° C.
IC50 values for compounds were determined using seven different [I]. […]

HCV replicon cells = assay: HCV replicon FRET / luciferase assay; type: cell-based; conditions: 50% reduction in FRET or luciferase activity in HCV replicon cells, read-out: EC50
Experimental: FRET Assay Preparation. The HCV FRET screening assay was performed in 96-well cell culture plates. The FRET peptide (Anaspec, Inc.) (Taliani et al., Anal. Biochem. 1996, 240, 60-67) contains a fluorescence donor, EDANS, near one end of the peptide and an acceptor, DABCYL, near the other end. The fluorescence of the peptide is quenched by […] resonance energy transfer (RET) between the donor and the acceptor, but as the NS3 protease cleaves the peptide the products are released from RET quenching and the fluorescence of the donor becomes apparent. The assay reagent was made as follows: 5× cell Luciferase cell culture lysis reagent from Promega (#E153A) diluted to 1× with dH2O, NaCl added to 150 mM final, the FRET peptide diluted to 20 μM final from a 2 mM stock.
To prepare plates, HCV replicon cells, with or without a Renilla luciferase reporter gene, were trypsinized and plated in a 96-well plate with titrated test compounds added in columns 3 through 12; columns 1 and 2 contained a control compound (HCV control inhibitor), and the bottom row contained cells with DMSO only. The plates were then placed in a CO2 incubator at 37° C.
Assays. Subsequent to addition of the test compounds described above (FRET Assay Preparation), at various times the plate was removed and Alamar blue solution (Trek Diagnostics, #00-100) was added to measure cellular toxicity. After reading in a Cytoflour 4000 instrument (PE Biosystems), plates were rinsed with PBS and then used for FRET assay by the addition of 30 ul of the FRET peptide assay reagent described above (FRET Assay Preparation) per well. The plate was then placed into the Cytoflour 4000 instrument which had been set to 340 excite/490 emission, automatic mode for up to 20 cycles and the plate read in a kinetic mode. Typically, the signal to noise using an endpoint analysis after the reads was at least three-fold. Alternatively, after Alamar blue reading, plates were rinsed with PBS, then used for luciferase assay using the Promega Dual-Glo Luciferase Assay System or the Promega EnduRen Live Cell Substrate assay.
Compound analysis was performed by quantification of the relative HCV replicon inhibition and the relative cytotoxicity values. To calculate cytoxicity values, the average Alamar Blue fluorescence signals from the control wells were set as 100% non-toxic. The individual signals in each of the compound test wells were then divided by the average control signal and multiplied by 100% to determine […]. To calculate the HCV replicon inhibition values, an average background value was obtained from the two wells containing the highest amount of HCV control inhibitor at the end of the assay period. These numbers were similar to those obtained from naïve Huh-7 cells. The background numbers were then subtracted from the average signal obtained from the control wells and this number was used as 100% activity. The individual signals in each of the compound test wells were then divided by the averaged control values after background subtraction and multiplied by 100% to determine percent activity. EC50 values were calculated as the concentration which caused a 50% reduction in FRET or luciferase activity. The two numbers generated for the compound plate, percent cytoxicity and percent activity, were used to determine compounds of interest for further analysis.

T1 sequence (Q9WMX2 2420-2992): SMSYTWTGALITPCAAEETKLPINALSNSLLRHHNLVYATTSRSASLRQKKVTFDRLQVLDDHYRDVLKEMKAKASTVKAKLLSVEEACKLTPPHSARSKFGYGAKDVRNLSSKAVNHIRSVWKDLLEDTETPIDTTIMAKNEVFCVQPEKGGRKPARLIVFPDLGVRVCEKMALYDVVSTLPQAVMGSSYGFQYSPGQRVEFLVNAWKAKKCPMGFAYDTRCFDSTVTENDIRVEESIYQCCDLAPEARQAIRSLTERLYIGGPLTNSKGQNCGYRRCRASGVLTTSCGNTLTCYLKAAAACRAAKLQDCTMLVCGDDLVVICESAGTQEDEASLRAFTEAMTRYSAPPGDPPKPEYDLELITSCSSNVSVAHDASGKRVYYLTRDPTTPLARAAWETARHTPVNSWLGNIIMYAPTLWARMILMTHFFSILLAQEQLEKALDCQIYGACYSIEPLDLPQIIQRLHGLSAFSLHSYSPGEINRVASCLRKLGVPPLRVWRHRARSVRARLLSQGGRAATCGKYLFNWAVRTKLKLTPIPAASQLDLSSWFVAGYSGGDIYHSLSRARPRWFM

Row | SMILES | IC50 (HCV NS5B) [nM] | EC50 (HCV replicon cells; Hepatitis C virus) [nM] | EC50 (HCV replicon cells) [nM]
1 | COc1ccc2c(c1)C1CC1(C(=O)N1C3COC[C@@H]1CN(C)C3)Cn1c-2c(C2CCCCC2)c2ccc(C(=O)NS(=O)(=O)C3CCCC3)cc21 (some centres unmarked) | 2.4 to 500 | 2.4 to 500 | 
2 | COc1ccc2c(c1)C1CC1(C(=O)N1C[C@@H]3C[C@H]1CN3CC(C)C)Cn1c-2c(C2CCCCC2)c2ccc(C(=O)NS(=O)(=O)C(C)C)cc21 (some centres unmarked) [drawing 94] | 2.4 to 500 | 2.4 to 500 | 
3 | COc1ccc2c(c1)[C@@H]1C[C@]1(C(=O)N1CC3CCC1CN3C)Cn1c-2c(C2CCCCC2)c2ccc(C(=O)NS(=O)(=O)C(C)C)cc21 (some centres unmarked) [drawing 128] |  | 2.4 to 500 | 
4 | COc1ccc2c(c1)C1CC1(C(=O)N1C[C@@H]3C[C@H]1CN3C)Cn1c-2c(C2CCCCC2)c2ccc(C(=O)NS(=O)(=O)N3CCC3)cc21 (some centres unmarked) | 2.4 to 500 | 2.4 to 500 | 
5 | COc1ccc2c(c1)C1CC1(C(=O)N1C3CN(C)CC1CN(C)C3)Cn1c-2c(C2CCCCC2)c2ccc(C(=O)NS(=O)(=O)N(C)C)cc21 (centres unmarked) | 2.4 to 500 | 2.4 to 500 | 
6 | COc1ccc2c(c1)C1CC1(C(=O)N1C[C@@H]3C[C@H]1CN3CC(C)C)Cn1c-2c(C2CCCCC2)c2ccc(C(=O)NS(=O)(=O)C(C)C)cc21 (some centres unmarked) [drawing 95] | 2.4 to 500 |  | 2.4 to 500
7 | COc1ccc2c(c1)C1CC1(C(=O)N1[C@@H]3C[C@H]1CN(C)C3)Cn1c-2c(C2CCCCC2)c2ccc(C(=O)NS(N)(=O)=O)cc21 (some centres unmarked) | 2.4 to 500 | 2.4 to 500 | 
8 | COc1ccc2c(c1)C1CC1(C(=O)N1C3CC1CN(Cc1ccccc1)C3)Cn1c-2c(C2CCCCC2)c2ccc(C(=O)NS(=O)(=O)C3CCCCC3)cc21 (centres unmarked) | 2.4 to 500 | 500 to 5000 | 
9 | COc1ccc2c(c1)C1CC1(C(=O)N1C3CC1CN(Cc1ccccc1)C3)Cn1c-2c(C2CCCCC2)c2ccc(C(=O)NS(=O)(=O)C3CC3)cc21 (centres unmarked) | 2.4 to 500 | 2.4 to 500 | 
10 | COc1ccc2c(c1)[C@@H]1C[C@]1(C(=O)N1C[C@@H]3C[C@H]1CN3C(=O)OC(C)(C)C)Cn1c-2c(C2CCCCC2)c2ccc(C(=O)NS(=O)(=O)N(C)C)cc21 | 2.4 to 500 | 2.4 to 500 | 
11 | COc1ccc2c(c1)C1CC1(C(=O)N1C3CC1CN(C)C3)Cn1c-2c(C2CCCCC2)c2ccc(C(=O)NS(=O)(=O)CC(C)C)cc21 (centres unmarked) | 2.4 to 500 | 2.4 to 500 | 
12 | COc1ccc2c(c1)C1CC1(C(=O)N1CCN3CCC1CC3)Cn1c-2c(C2CCCCC2)c2ccc(C(=O)NS(=O)(=O)C(C)C)cc21 (centres unmarked) | 2.4 to 500 | 2.4 to 500 | 
13 | CCCS(=O)(=O)NC(=O)c1ccc2c(C3CCCCC3)c3n(c2c1)CC1(C(=O)N2C4CCCC2CN(C)C4)CC1c1cc(OC)ccc1-3 (centres unmarked) | 2.4 to 500 | 2.4 to 500 | 
14 | COc1ccc2c(c1)C1CC1(C(=O)N1C[C@]3(C)CN(C)C[C@](C)(C1)C3O)Cn1c-2c(C2CCCCC2)c2ccc(C(=O)NS(=O)(=O)N(C)C)cc21 (some centres unmarked) | 2.4 to 500 | 2.4 to 500 | 
15 | COc1ccc2c(c1)C1CC1(C(=O)N1C3CC1CN(C)C3)Cn1c-2c(C2CCCCC2)c2ccc(C(=O)NS(=O)(=O)C(C)(C)C)cc21 (centres unmarked) | 2.4 to 500 | 2.4 to 500 | 
16 | COCCN1CC2CCC1CN2C(=O)[C@]12C[C@H]1c1cc(OC)ccc1-c1c(C3CCCCC3)c3ccc(C(=O)NS(=O)(=O)C(C)C)cc3n1C2 (some centres unmarked) | 2.4 to 500 | 2.4 to 500 | 
17 | COc1ccc2c(c1)C1CC1(C(=O)N1[C@@H]3C[C@H]1CN(C(=O)N(C)C)C3)Cn1c-2c(C2CCCCC2)c2ccc(C(=O)NS(=O)(=O)N(C)C)cc21 (some centres unmarked) | 2.4 to 500 | 2.4 to 500 | 
18 | COc1ccc2c(c1)[C@@H]1C[C@]1(C(=O)N1C3CCCC1CN(C)C3)Cn1c-2c(C2CCCCC2)c2ccc(C(=O)NS(=O)(=O)N(C)C)cc21 | 2.4 to 500 | 2.4 to 500 | 
19 | COc1ccc2c(c1)C1CC1(C(=O)N1C[C@@H]3C[C@H]1CN3)Cn1c-2c(C2CCCCC2)c2ccc(C(=O)NS(=O)(=O)C3CC3)cc21 (some centres unmarked) | 2.4 to 500 |  | 
20 | COc1ccc2c(c1)C1CC1(C(=O)N1C3CC1CN(C)C3)Cn1c-2c(C2CCCCC2)c2ccc(C(=O)NS(=O)(=O)CC3CCCO3)cc21 (centres unmarked) | 2.4 to 500 | 2.4 to 500 | 
21 | COc1ccc2c(c1)C1CC1(C(=O)N1CC3(C)CN(C)CC(C)(C1)C3)Cn1c-2c(C2CCCCC2)c2ccc(C(=O)NS(=O)(=O)N(C)C)cc21 (centres unmarked) | 2.4 to 500 | 2.4 to 500 | 
22 | COc1ccc2c(c1)[C@@H]1C[C@]1(C(=O)N1C3CN(C)CC1CN(C(C)=O)C3)Cn1c-2c(C2CCCCC2)c2ccc(C(=O)NS(=O)(=O)N(C)C)cc21 | 2.4 to 500 | 2.4 to 500 | 
23 | COc1ccc2c(c1)C1CC1(C(=O)N1C[C@H]3C[C@@H]1CN3C(=O)OC(C)(C)C)Cn1c-2c(C2CCCCC2)c2ccc(C(=O)NS(=O)(=O)N(C)C)cc21 (some centres unmarked) | 2.4 to 500 |  | 
24 | COc1ccc2c(c1)[C@@H]1C[C@]1(C(=O)N1CC3CCC1CN3C)Cn1c-2c(C2CCCCC2)c2ccc(C(=O)NS(=O)(=O)C(C)C)cc21 (some centres unmarked) [drawing 129] |  |  | 2.4 to 500
25 | CCC(C)S(=O)(=O)NC(=O)c1ccc2c(C3CCCCC3)c3n(c2c1)CC1(C(=O)N2C4COCC2CN(C)C4)CC1c1cc(OC)ccc1-3 (centres unmarked) | 2.4 to 500 |  | 
26 | COc1ccc2c(c1)C1CC1(C(=O)N1C3CNCC1CN(C)C3)Cn1c-2c(C2CCCCC2)c2ccc(C(=O)NS(=O)(=O)N(C)C)cc21 (centres unmarked) | 2.4 to 500 |  | 
27 | COc1ccc2c(c1)C1CC1(NC(=O)N1CC3CN(Cc4ccccc4)CC(C1)N3Cc1ccccc1)Cn1c-2c(C2CCCCC2)c2ccc(C(=O)NS(=O)(=O)N(C)C)cc21 (centres unmarked) | 500 to 5000 |  | 

Source: patent US7547690B2, “Compounds for the treatment of Hepatitis C” (Bristol-Myers Squibb Company, priority 2007, dated 2009)
